According to article PMC7760137, “Solid Lipid Nanoparticles as Formulative Strategy to Increase Oral Permeation of a Molecule Active in Multidrug-Resistant Tuberculosis Management” (Pharmaceutics, 2020):
≈ marks a conversion by molar mass, not a printed value.

Assays:
M. tuberculosis H37Rv = experiment: Drug sensitivity testing, Bactec MGIT 960; assay type: cell-based, Mycobacterium tuberculosis; parameters: key: sensitive (S); resistant (R); conditions: strain H37Rv
[1] = system: M. tuberculosis strain 952; experiment: Drug sensitivity testing, Bactec MGIT 960; assay type: cell-based, Mycobacterium tuberculosis; parameters: key: sensitive (S); resistant (R)
[2] = system: M. tuberculosis strain 1097; experiment: Drug sensitivity testing, Bactec MGIT 960; assay type: cell-based, Mycobacterium tuberculosis; parameters: key: sensitive (S); resistant (R)
[3] = system: M. tuberculosis strain 1670; experiment: Drug sensitivity testing, Bactec MGIT 960; assay type: cell-based, Mycobacterium tuberculosis; parameters: key: sensitive (S); resistant (R)
[4] = system: M. tuberculosis strain 512; experiment: Drug sensitivity testing, Bactec MGIT 960; assay type: cell-based, Mycobacterium tuberculosis; parameters: key: sensitive (S); resistant (R)
[5] = system: M. tuberculosis strain 600; experiment: Drug sensitivity testing, Bactec MGIT 960; assay type: cell-based, Mycobacterium tuberculosis; parameters: key: sensitive (S); resistant (R)
[6] = system: M. tuberculosis strain 368; experiment: Drug sensitivity testing, Bactec MGIT 960; assay type: cell-based, Mycobacterium tuberculosis; parameters: key: sensitive (S); resistant (R)
[7] = system: M. tuberculosis strain 1762; experiment: Drug sensitivity testing, Bactec MGIT 960; assay type: cell-based, Mycobacterium tuberculosis; parameters: key: sensitive (S); resistant (R)
[8] = system: M. tuberculosis strain 571; experiment: Drug sensitivity testing, Bactec MGIT 960; assay type: cell-based, Mycobacterium tuberculosis; parameters: key: sensitive (S); resistant (R)
[9] = system: M. tuberculosis strain 1120; experiment: Drug sensitivity testing, Bactec MGIT 960; assay type: cell-based, Mycobacterium tuberculosis; parameters: key: sensitive (S); resistant (R)
[10] = system: M. tuberculosis H37Rv strain (ATCC 27294); experiment: Resazurin microtiter assay (REMA); assay type: cell-based; conditions: Mycobacterium tuberculosis, drug alone
Description: REMA assays were performed in sterile 96-well microtiter plates with round-bottom wells, sealed in a plastic bag. Mycobacteria were cultured in Middlebrook 7H11 medium supplemented with OADC. […] Final bacterial inocula were approximately 1–5 × 10^5 CFU/mL. Plates were incubated at 37 °C and were read after 72 h. Once the final visual reading was performed, 30 μL of 0.02% resazurin was added to each well before reincubation overnight. Bacterial growth was measured by the change in color from blue (oxidized state) to pink (reduced), and minimal inhibitory concentration (MIC) was defined as the lowest drug concentration that prevented the color change and, therefore, the mycobacteria growth.

[11] = system: M. tuberculosis clinical isolate 952; experiment: microbe, parasite or virus in culture; assay type: cell-based; conditions: Mycobacterium tuberculosis
[12] = system: M. tuberculosis clinical isolate 1097; experiment: microbe, parasite or virus in culture; assay type: cell-based; conditions: Mycobacterium tuberculosis
[13] = system: M. tuberculosis clinical isolate 1670; experiment: microbe, parasite or virus in culture; assay type: cell-based; conditions: Mycobacterium tuberculosis
[14] = system: M. tuberculosis clinical isolate 512; experiment: microbe, parasite or virus in culture; assay type: cell-based; conditions: Mycobacterium tuberculosis
[15] = system: M. tuberculosis clinical isolate 600; experiment: microbe, parasite or virus in culture; assay type: cell-based; conditions: Mycobacterium tuberculosis
[16] = system: M. tuberculosis clinical isolate 368; experiment: microbe, parasite or virus in culture; assay type: cell-based; conditions: Mycobacterium tuberculosis
[17] = system: M. tuberculosis clinical isolate 1762; experiment: microbe, parasite or virus in culture; assay type: cell-based; conditions: Mycobacterium tuberculosis
[18] = system: M. tuberculosis clinical isolate 571; experiment: microbe, parasite or virus in culture; assay type: cell-based; conditions: Mycobacterium tuberculosis
[19] = system: M. tuberculosis clinical isolate 1120; experiment: microbe, parasite or virus in culture; assay type: cell-based; conditions: Mycobacterium tuberculosis

**Q.** `CC[C@@H](CO)NCCN[C@@H](CC)CO` [EMB, ethambutol] was tested. Which “Drug sensitivity test result” value (M. tuberculosis H37Rv) did it give?
**A.** The value was “S”.

**Q.** What about the “Drug sensitivity test result” value [1] of the same compound?
**A.** Its value is “S”.

**Q.** What about the “Drug sensitivity test result” value [2] of the same compound?
**A.** Its value is “R”.

**Q.** What about the “Drug sensitivity test result” value [3] of the same compound?
**A.** The value was “S”.

**Q.** What about the “Drug sensitivity test result” value [4] of the same compound?
**A.** The value was “R”.

**Q.** What about the “Drug sensitivity test result” value [5] of the same compound?
**A.** Its value is “R”.

**Q.** And the “Drug sensitivity test result” value [6]?
**A.** Its value is “R”.

**Q.** And the “Drug sensitivity test result” value [7]?
**A.** Its value is “R”.

**Q.** What about the “Drug sensitivity test result” value [8] of the same compound?
**A.** Its value is “R”.

**Q.** And the “Drug sensitivity test result” value [9]?
**A.** Its value is “R”.

**Q.** And the MIC [10]?
**A.** The MIC was 1 µg/mL (≈ 4.89 µM).

**Q.** What about the MIC [11] of the same compound?
**A.** The MIC was 1 µg/mL (≈ 4.89 µM).

**Q.** What about the MIC [12] of the same compound?
**A.** The MIC was 32 µg/mL (≈ 157 µM).

**Q.** What about the MIC [13] of the same compound?
**A.** The MIC was 1 µg/mL (≈ 4.89 µM).

**Q.** What about the MIC [14] of the same compound?
**A.** Its MIC is 4 µg/mL (≈ 19.6 µM).

**Q.** And the MIC [15]?
**A.** Its MIC is > 16 µg/mL.

**Q.** What about the MIC [16] of the same compound?
**A.** Its MIC is > 16 µg/mL.

**Q.** And the MIC [17]?
**A.** Its MIC is 4 µg/mL (≈ 19.6 µM).

**Q.** What about the MIC [18] of the same compound?
**A.** The MIC was > 16 µg/mL.

**Q.** And the MIC [19]?
**A.** Its MIC is > 64 µg/mL.

**Q.** For `NNC(=O)c1ccncc1` [INH, isoniazid], which “Drug sensitivity test result” value (M. tuberculosis H37Rv) is on record?
**A.** Its value is “S”.

**Q.** What about the “Drug sensitivity test result” value [1] of the same compound?
**A.** The value was “S”.

**Q.** What about the “Drug sensitivity test result” value [2] of the same compound?
**A.** The value was “R”.

**Q.** And the “Drug sensitivity test result” value [3]?
**A.** The value was “S”.

**Q.** What about the “Drug sensitivity test result” value [4] of the same compound?
**A.** Its value is “R”.

**Q.** And the “Drug sensitivity test result” value [5]?
**A.** Its value is “R”.

**Q.** And the “Drug sensitivity test result” value [6]?
**A.** Its value is “R”.

**Q.** And the “Drug sensitivity test result” value [7]?
**A.** Its value is “S”.

**Q.** And the “Drug sensitivity test result” value [8]?
**A.** Its value is “R”.

**Q.** And the “Drug sensitivity test result” value [9]?
**A.** The value was “R”.

**Q.** And the MIC [10]?
**A.** The MIC was 0.125 µg/mL (≈ 0.911 µM).

**Q.** And the MIC [11]?
**A.** The MIC was 0.062 µg/mL (≈ 0.452 µM).

**Q.** And the MIC [12]?
**A.** The MIC was 2 µg/mL (≈ 14.6 µM).

**Q.** What about the MIC [13] of the same compound?
**A.** The MIC was 0.125 µg/mL (≈ 0.911 µM).

**Q.** And the MIC [14]?
**A.** The MIC was 1 µg/mL (≈ 7.29 µM).

**Q.** And the MIC [15]?
**A.** Its MIC is > 1 µg/mL.

**Q.** What about the MIC [16] of the same compound?
**A.** Its MIC is < 1 µg/mL.

**Q.** What about the MIC [17] of the same compound?
**A.** Its MIC is 0.062 µg/mL (≈ 0.452 µM).

**Q.** And the MIC [18]?
**A.** The MIC was > 1 µg/mL.

**Q.** What about the MIC [19] of the same compound?
**A.** Its MIC is > 16 µg/mL.

**Q.** `CO[C@H]1/C=C/O[C@@]2(C)Oc3c(C)c(O)c4c(O)c(c(/C=N/N5CCN(C)CC5)c(O)c4c3C2=O)NC(=O)/C(C)=C\C=C\[C@H](C)[C@H](O)[C@@H](C)[C@@H](O)[C@@H](C)[C@H](OC(C)=O)[C@@H]1C` [RIF, rifampicin] was tested. Which “Drug sensitivity test result” value (M. tuberculosis H37Rv) did it give?
**A.** The value was “S”.

**Q.** And the “Drug sensitivity test result” value [1]?
**A.** Its value is “R”.

**Q.** What about the “Drug sensitivity test result” value [2] of the same compound?
**A.** Its value is “S”.

**Q.** What about the “Drug sensitivity test result” value [3] of the same compound?
**A.** The value was “S”.

**Q.** And the “Drug sensitivity test result” value [4]?
**A.** The value was “R”.

**Q.** What about the “Drug sensitivity test result” value [5] of the same compound?
**A.** The value was “R”.

**Q.** And the “Drug sensitivity test result” value [6]?
**A.** Its value is “S”.

**Q.** What about the “Drug sensitivity test result” value [7] of the same compound?
**A.** Its value is “R”.

**Q.** What about the “Drug sensitivity test result” value [8] of the same compound?
**A.** Its value is “R”.

**Q.** And the “Drug sensitivity test result” value [9]?
**A.** The value was “R”.

**Q.** And the MIC [10]?
**A.** The MIC was 0.25 µg/mL (≈ 0.304 µM).

**Q.** And the MIC [11]?
**A.** Its MIC is 0.5 µg/mL (≈ 0.608 µM).

**Q.** What about the MIC [12] of the same compound?
**A.** The MIC was 0.25 µg/mL (≈ 0.304 µM).

**Q.** What about the MIC [13] of the same compound?
**A.** Its MIC is 0.125 µg/mL (≈ 0.152 µM).

**Q.** And the MIC [14]?
**A.** The MIC was > 2 µg/mL.

**Q.** What about the MIC [15] of the same compound?
**A.** Its MIC is > 2 µg/mL.

**Q.** And the MIC [16]?
**A.** The MIC was 0.25 µg/mL (≈ 0.304 µM).

**Q.** What about the MIC [17] of the same compound?
**A.** The MIC was > 2 µg/mL.

**Q.** And the MIC [18]?
**A.** The MIC was > 2 µg/mL.

**Q.** And the MIC [19]?
**A.** Its MIC is 8 µg/mL (≈ 9.72 µM).

**Q.** For `[H]/N=C(/N)N[C@H]1[C@H](O)[C@@H](O)[C@H](O[C@@H]2O[C@@H](C)[C@](O)(C=O)[C@H]2O[C@@H]2O[C@@H](CO)[C@H](O)[C@@H](O)[C@@H]2NC)[C@@H](N/C(N)=N\[H])[C@@H]1O` [SM, streptomycin], which “Drug sensitivity test result” value (M. tuberculosis H37Rv) is on record?
**A.** Its value is “S”.

**Q.** What about the “Drug sensitivity test result” value [1] of the same compound?
**A.** The value was “S”.

**Q.** What about the “Drug sensitivity test result” value [2] of the same compound?
**A.** Its value is “R”.

**Q.** And the “Drug sensitivity test result” value [3]?
**A.** Its value is “S”.

**Q.** And the “Drug sensitivity test result” value [4]?
**A.** The value was “S”.

**Q.** What about the “Drug sensitivity test result” value [5] of the same compound?
**A.** Its value is “R”.

**Q.** What about the “Drug sensitivity test result” value [6] of the same compound?
**A.** The value was “S”.

**Q.** What about the “Drug sensitivity test result” value [7] of the same compound?
**A.** Its value is “S”.

**Q.** What about the “Drug sensitivity test result” value [8] of the same compound?
**A.** Its value is “R”.

**Q.** And the “Drug sensitivity test result” value [9]?
**A.** The value was “R”.

**Q.** And the MIC [10]?
**A.** The MIC was 0.125 µg/mL (≈ 0.215 µM).

**Q.** And the MIC [11]?
**A.** The MIC was 0.062 µg/mL (≈ 0.107 µM).

**Q.** What about the MIC [12] of the same compound?
**A.** The MIC was 4 µg/mL (≈ 6.88 µM).

**Q.** What about the MIC [13] of the same compound?
**A.** The MIC was 0.125 µg/mL (≈ 0.215 µM).

**Q.** What about the MIC [14] of the same compound?
**A.** The MIC was 0.5 µg/mL (≈ 0.86 µM).

**Q.** And the MIC [15]?
**A.** The MIC was > 4 µg/mL.

**Q.** And the MIC [16]?
**A.** The MIC was 0.5 µg/mL (≈ 0.86 µM).

**Q.** And the MIC [17]?
**A.** Its MIC is 0.125 µg/mL (≈ 0.215 µM).

**Q.** What about the MIC [18] of the same compound?
**A.** Its MIC is 0.25 µg/mL (≈ 0.43 µM).

**Q.** What about the MIC [19] of the same compound?
**A.** Its MIC is 4 µg/mL (≈ 6.88 µM).
